Results from patent US10259786B2, “Psychotropic agents and uses thereof” (LB PHARMACEUTICALS INC., priority 2016, dated 2019).

How the values were obtained:
[1] = system: PCP-treated rats; assay: Novel Object Recognition (NOR) assay, sub-chronic PCP; assay type: in vivo, rat; settings: PO; for difference between novel and familiar object exploration time: 3 hours post-dose, all doses save one; for known object exploration behavior in rats treated with PCP: compared to untreated rats
Experimental: Efficacy of Compounds 102 and 103 was evaluated in rats in a Novel Object Recognition (NOR) assay, a well-established model recapitulating cognitive and negative aspects of the PANSS scale of schizophrenia. In this assay, animals were treated for several weeks with a low dose of phencyclidine (PCP) to impair the ability of the rat to discern between novel and familiar objects. Typically rats, like humans, would spend more time exploring a novel object than a familiar one.
Rats (n=10/group) were dosed with 2 mg/kg intraperitoneal twice a day (i.p., b.i.d.) for seven days followed by 7 days drug free. […] Novel object exploration time was measured for the test subjects from a sub-chronic PCP NOR study in rats (n=10/group). The differences in exploration time between novel (Tnovel¬) and familiar (Tfamliar) objects are depicted in FIG. 1A (*: p<0.05; and **: p<0.01).

[2] = molecular target: D1 receptor (Homo sapiens (Human), UniProt P21728); settings: D1 receptor subtype; cited from earlier work
[3] = molecular target: D4 receptor (Homo sapiens (Human), UniProt P21917); settings: D4 receptor subtype; cited from earlier work
[4] = molecular target: D5 receptor (Homo sapiens (Human), UniProt P21918); settings: D5 receptor subtype; cited from earlier work
[5] = 2014 study, 30 psychiatric drugs tested; cited from earlier work

Chain of D5 receptor (P21918 whole entry): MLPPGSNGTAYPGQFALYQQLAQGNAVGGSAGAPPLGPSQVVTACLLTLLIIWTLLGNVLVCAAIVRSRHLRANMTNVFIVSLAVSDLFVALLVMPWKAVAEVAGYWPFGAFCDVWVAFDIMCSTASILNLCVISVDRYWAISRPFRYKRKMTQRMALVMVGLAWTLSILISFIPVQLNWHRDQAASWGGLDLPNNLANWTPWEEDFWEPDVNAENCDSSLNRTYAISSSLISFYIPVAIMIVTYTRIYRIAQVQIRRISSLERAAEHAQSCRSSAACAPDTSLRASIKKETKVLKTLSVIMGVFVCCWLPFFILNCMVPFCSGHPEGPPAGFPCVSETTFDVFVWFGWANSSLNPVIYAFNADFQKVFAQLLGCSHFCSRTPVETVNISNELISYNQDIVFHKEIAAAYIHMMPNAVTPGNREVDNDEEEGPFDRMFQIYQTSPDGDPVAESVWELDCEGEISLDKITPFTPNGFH
Chain of D1 receptor (P21728 whole entry): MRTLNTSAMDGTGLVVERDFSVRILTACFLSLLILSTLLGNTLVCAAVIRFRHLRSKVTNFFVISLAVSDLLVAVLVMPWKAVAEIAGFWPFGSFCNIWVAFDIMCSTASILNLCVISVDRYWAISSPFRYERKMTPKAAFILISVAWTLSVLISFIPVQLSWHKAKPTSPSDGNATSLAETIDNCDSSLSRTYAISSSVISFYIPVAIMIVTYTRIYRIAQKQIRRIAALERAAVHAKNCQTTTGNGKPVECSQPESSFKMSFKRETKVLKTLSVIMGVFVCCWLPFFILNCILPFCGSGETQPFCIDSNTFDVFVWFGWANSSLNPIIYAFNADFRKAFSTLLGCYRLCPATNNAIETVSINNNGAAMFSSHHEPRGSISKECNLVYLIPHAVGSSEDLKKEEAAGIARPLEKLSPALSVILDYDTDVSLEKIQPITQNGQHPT
Chain of D4 receptor (P21917 whole entry): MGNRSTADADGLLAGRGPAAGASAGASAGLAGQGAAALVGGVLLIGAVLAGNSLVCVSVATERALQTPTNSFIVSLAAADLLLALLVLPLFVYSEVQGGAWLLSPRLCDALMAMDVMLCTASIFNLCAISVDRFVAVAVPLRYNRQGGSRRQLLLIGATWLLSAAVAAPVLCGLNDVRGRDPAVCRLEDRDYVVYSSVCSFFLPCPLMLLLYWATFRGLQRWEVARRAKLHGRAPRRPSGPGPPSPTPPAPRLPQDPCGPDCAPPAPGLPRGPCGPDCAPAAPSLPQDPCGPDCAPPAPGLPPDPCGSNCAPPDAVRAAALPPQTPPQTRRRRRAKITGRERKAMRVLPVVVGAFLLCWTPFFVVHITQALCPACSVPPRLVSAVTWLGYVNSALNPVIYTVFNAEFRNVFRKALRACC

SMILES | difference between novel and familiar object exploration time [1] | known object exploration behavior in rats treated with PCP [1] | affinity [2] | affinity [3] | affinity [4] | passive diffusion across a PAMPA membrane (Pe) [5]
CCN1CCC[C@H]1CNC(=O)c1cc(S(=O)(=O)CC)c(NC)cc1OC [Compound 103, ((S)-4-methylamino-N-((1-ethyl-2-pyrrolidinyl)methyl)-5-(ethylsulfonyl))-2-methoxybenzamide] | increased | able to restore known object exploration behavior in rats treated with PCP to levels similar to untreated rats | – | – | – | –
CCN1CCCC1CNC(=O)c1cc(S(=O)(=O)CC)c(N)cc1OC (centres unmarked) [Amisulpride, 4-amino-N-(((1-ethyl-2-pyrrolidinyl)methyl)-5-(ethylsulfonyl))-2-methoxybenzamide] | – | – | without any affinity | without any affinity | without any affinity | lowest of 30 psychiatric drugs tested
CCN1CCCC1CNC(=O)c1cc(S(=O)(=O)CC)c(NC)cc1OC (centres unmarked) [Compound 102] | increased | able to restore known object exploration behavior in rats treated with PCP to levels similar to untreated rats | – | – | – | –
